Test results reported in US12595288B2 (priority 2020, dated 2026).
Read-outs that look alike come from different tables or passages of the source. Bridge positions count the residues as written; N and C are the ends. Ends that are not written are not given here. Peptide text beside a SMILES is read from it.

Key:
Chymase = Chymase (Homo sapiens, UniProt P23946); experiment: biochemical
Cathepsin G = Cathepsin G (Homo sapiens, UniProt P08311); experiment: biochemical
V2R versus V1a = details: cited from earlier work
Caspase 6 = Caspase 6 (Homo sapiens, UniProt P55212); experiment: biochemical
Caspase 7 = Caspase 7 (Homo sapiens, UniProt P55210); assay type: biochemical; details: read-out: Compound IC50
Cathepsin H = Cathepsin H (Homo sapiens, UniProt P09668); assay type: biochemical; details: read-out: Compound IC50
Cathepsin B = Cathepsin B (Homo sapiens, UniProt P07858); assay type: biochemical; details: read-out: Compound IC50
Cathepsin C = Cathepsin C (Homo sapiens, UniProt P53634); experiment: biochemical
Cathepsin L = Cathepsin L (Homo sapiens, UniProt P07711); assay type: biochemical; details: read-out: Compound IC50
Cathepsin V = Cathepsin V (Homo sapiens, UniProt O60911); assay type: biochemical; details: read-out: Compound IC50
Papain = Papain (Carica papaya, UniProt P00784); experiment: biochemical
Cathepsin S = Cathepsin S (Homo sapiens, UniProt P25774); assay type: biochemical; details: read-out: Compound IC50
Caspase 8 = Caspase 8 (Homo sapiens, UniProt Q14790); assay type: biochemical; details: read-out: Compound IC50
Caspase 4 = Caspase 4 (Homo sapiens, UniProt P49662); assay type: biochemical; details: read-out: Compound IC50
Caspase 2 = Caspase 2 (Homo sapiens, UniProt P42575); experiment: biochemical
Caspase 10 = Caspase 10 (Homo sapiens, UniProt Q92851); experiment: biochemical
Caspase 1 = Caspase 1 (Homo sapiens, UniProt P29466); experiment: biochemical
Caspase 5 = Caspase 5 (Homo sapiens, UniProt P51878); experiment: biochemical
Caspase 9 = Caspase 9 (Homo sapiens, UniProt P55211); experiment: biochemical
Caspase 11 = Caspase 11 (Mus musculus, UniProt P70343); experiment: biochemical
Proteinase A = Proteinase A (Bacillus licheniformis, UniProt P00780); experiment: biochemical; design: species or system Bacillus Iicheniformis
Kallikrein 1 = Kallikrein 1 (Homo sapiens, UniProt P06870); experiment: biochemical
Kallikrein 5 = Kallikrein 5 (Homo sapiens, UniProt Q9Y337); experiment: biochemical
Chymotrypsin = Chymotrypsin (Bos taurus, UniProt P00766); experiment: biochemical; design: species or system Bovine
[1] = system: 156 other GPCRs, including V1aR, V1bR and OTR; details: cited from earlier work
Kallikrein 7 = Kallikrein 7 (Homo sapiens, UniProt P49862); experiment: biochemical
Tryptase b2 = Tryptase b2 (Homo sapiens, UniProt P20231); experiment: biochemical
Matriptase 2 = Matriptase 2 (Homo sapiens, UniProt Q8IU80); experiment: biochemical
Plasma Kallikrein = Plasma Kallikrein (Homo sapiens, UniProt P03952); experiment: biochemical
Tryptase g1 = assay type: biochemical, Human; details: read-out: Compound IC50
Trypsin = Trypsin (Bos taurus, UniProt P00760); experiment: biochemical; design: species or system Bovine
Elastase = Elastase (Homo sapiens, UniProt P08246); experiment: biochemical
[2] = target: human Arginine Vasopressin Receptor 2A (AVPR2A) (Homo sapiens, UniProt P30518); experiment: cell-based
[3] = system: DDAVP-induced hyponatremia in Sprague-Dawley rats; details: rat, in vivo
Thrombin A = Thrombin A (Homo sapiens, UniProt P00734); assay type: biochemical; details: read-out: Compound IC50
Urokinase = Urokinase (Homo sapiens, UniProt P00749); assay type: biochemical; details: read-out: Compound IC50
Kallikrein 12 = Kallikrein 12 (Homo sapiens, UniProt Q9UKR0); assay type: biochemical; details: read-out: Compound IC50
FXa = FXa (Homo sapiens, UniProt P00742); assay type: biochemical; details: read-out: Compound IC50
Plasmin = Plasmin (Homo sapiens, UniProt P00747); assay type: biochemical; details: read-out: Compound IC50
Kallikrein 14 = Kallikrein 14 (Homo sapiens, UniProt Q9P0G3); assay type: biochemical; details: read-out: Compound IC50
Kallikrein 13 = Kallikrein 13 (Homo sapiens, UniProt Q9UKR3); assay type: biochemical; details: read-out: Compound IC50
[4] = target: human vasopressin-2 receptor (V2R) (Homo sapiens, UniProt P30518); experiment: biochemical; assay type: binding
human vasopressin-2 receptor (V2R), sequence (P30518 whole entry): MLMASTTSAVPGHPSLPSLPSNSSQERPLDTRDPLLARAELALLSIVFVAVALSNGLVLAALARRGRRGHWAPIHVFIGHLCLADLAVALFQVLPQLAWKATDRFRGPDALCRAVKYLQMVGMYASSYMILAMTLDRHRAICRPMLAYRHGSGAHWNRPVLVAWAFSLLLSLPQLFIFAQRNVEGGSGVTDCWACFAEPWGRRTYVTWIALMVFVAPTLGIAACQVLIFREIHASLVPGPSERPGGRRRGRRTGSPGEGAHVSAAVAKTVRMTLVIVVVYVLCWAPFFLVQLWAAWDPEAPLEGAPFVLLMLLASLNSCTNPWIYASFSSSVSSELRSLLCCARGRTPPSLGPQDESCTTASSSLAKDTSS

Tryptase b2, sequence (P20231 31-275): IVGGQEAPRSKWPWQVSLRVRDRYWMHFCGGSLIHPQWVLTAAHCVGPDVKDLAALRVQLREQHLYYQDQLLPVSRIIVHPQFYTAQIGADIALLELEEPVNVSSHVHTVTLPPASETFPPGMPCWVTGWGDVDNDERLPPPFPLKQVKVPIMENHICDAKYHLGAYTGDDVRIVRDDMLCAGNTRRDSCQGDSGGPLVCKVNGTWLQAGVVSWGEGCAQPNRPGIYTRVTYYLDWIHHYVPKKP
Trypsin, sequence (P00760 24-246): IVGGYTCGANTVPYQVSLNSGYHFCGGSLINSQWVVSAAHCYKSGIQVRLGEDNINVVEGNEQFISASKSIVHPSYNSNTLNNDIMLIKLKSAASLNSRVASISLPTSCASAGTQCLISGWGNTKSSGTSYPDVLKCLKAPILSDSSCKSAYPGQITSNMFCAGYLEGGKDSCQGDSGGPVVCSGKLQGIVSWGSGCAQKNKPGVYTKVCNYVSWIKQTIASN
Caspase 11, sequence (P70343 102-373): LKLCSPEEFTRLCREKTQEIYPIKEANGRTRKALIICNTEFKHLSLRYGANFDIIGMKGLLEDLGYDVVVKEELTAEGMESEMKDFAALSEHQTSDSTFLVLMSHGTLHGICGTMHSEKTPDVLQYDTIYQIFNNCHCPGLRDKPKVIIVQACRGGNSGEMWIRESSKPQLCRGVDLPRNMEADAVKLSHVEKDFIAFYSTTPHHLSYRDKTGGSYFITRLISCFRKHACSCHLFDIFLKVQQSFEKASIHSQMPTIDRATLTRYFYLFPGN
Elastase, sequence (P08246 30-247): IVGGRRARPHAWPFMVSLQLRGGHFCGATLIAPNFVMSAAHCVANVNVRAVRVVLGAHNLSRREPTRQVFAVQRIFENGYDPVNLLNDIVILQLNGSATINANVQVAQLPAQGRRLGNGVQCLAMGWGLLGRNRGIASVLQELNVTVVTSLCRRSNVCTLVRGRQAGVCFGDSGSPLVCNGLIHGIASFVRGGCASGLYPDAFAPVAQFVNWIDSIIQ
Caspase 1, sequence (P29466 120-404): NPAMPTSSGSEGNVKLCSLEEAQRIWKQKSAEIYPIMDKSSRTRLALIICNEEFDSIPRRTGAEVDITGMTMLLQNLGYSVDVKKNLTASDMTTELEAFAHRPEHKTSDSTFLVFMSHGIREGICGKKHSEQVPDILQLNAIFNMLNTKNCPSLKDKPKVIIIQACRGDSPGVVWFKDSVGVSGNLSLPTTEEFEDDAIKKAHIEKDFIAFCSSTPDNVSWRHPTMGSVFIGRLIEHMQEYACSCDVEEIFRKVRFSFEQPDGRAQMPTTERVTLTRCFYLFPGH
Caspase 10, sequence (Q92851-2 with tags, fused parts or gaps limits assumed): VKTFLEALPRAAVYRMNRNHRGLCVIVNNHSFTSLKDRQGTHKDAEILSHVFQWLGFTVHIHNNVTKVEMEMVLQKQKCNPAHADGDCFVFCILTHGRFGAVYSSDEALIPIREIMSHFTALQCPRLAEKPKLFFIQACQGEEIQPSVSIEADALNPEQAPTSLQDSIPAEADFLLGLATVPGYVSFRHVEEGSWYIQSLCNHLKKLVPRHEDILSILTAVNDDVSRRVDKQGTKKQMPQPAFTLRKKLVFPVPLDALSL
Cathepsin C, sequence (P53634 25-143): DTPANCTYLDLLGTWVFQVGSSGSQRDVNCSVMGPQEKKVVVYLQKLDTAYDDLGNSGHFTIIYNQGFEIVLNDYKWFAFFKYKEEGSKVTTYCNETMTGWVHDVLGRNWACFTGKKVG
Cathepsin C, sequence (P53634 231-394): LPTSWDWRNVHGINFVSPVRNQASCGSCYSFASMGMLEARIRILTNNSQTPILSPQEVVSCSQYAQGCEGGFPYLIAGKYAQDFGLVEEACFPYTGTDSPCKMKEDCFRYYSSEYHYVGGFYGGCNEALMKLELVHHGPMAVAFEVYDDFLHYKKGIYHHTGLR
Cathepsin C, sequence (P53634 395-463): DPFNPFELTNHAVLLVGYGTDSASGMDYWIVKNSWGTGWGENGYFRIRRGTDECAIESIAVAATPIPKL
Matriptase 2, sequence (Q8IU80 78-811): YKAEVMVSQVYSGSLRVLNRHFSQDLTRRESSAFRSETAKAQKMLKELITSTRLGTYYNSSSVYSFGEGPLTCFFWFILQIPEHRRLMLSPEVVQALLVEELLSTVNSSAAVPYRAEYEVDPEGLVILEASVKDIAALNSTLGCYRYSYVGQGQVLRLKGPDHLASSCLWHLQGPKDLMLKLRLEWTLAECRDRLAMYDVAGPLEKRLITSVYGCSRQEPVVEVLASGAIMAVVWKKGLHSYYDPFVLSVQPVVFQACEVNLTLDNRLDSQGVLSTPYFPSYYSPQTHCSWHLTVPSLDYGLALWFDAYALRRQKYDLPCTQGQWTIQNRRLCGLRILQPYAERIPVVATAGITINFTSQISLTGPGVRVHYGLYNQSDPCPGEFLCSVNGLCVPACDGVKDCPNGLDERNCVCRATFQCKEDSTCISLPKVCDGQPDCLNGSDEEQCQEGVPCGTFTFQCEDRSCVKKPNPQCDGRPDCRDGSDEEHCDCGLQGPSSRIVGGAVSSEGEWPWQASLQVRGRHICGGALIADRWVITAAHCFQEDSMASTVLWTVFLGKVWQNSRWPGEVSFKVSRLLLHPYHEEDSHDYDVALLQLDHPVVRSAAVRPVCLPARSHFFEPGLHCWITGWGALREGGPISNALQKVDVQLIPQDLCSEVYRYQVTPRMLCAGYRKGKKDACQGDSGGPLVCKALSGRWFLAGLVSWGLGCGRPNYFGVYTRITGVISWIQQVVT
Chymase, sequence (P23946 22-247): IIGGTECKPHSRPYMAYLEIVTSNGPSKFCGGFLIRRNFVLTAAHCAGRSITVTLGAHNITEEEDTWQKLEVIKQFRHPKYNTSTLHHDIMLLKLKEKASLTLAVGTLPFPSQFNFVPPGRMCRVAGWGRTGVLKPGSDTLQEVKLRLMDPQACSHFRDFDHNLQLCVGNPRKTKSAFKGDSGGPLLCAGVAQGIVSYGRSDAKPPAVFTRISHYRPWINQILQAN
Caspase 2, sequence (P42575 167-333): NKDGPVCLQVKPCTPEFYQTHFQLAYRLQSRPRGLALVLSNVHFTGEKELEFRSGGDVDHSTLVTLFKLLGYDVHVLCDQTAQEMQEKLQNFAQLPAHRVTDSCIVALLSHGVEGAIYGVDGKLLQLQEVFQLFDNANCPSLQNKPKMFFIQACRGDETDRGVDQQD
Caspase 2, sequence (P42575 348-452): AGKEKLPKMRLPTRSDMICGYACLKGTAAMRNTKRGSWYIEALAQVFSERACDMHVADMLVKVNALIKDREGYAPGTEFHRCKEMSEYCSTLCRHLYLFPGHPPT
Kallikrein 5, sequence (Q9Y337 67-293): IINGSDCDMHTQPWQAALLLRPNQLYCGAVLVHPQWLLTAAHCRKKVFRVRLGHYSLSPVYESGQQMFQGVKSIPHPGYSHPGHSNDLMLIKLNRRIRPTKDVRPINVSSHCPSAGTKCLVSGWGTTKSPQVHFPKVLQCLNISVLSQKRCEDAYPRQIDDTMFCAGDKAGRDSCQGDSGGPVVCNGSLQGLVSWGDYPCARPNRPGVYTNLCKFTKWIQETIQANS
Kallikrein 7, sequence (P49862 30-252): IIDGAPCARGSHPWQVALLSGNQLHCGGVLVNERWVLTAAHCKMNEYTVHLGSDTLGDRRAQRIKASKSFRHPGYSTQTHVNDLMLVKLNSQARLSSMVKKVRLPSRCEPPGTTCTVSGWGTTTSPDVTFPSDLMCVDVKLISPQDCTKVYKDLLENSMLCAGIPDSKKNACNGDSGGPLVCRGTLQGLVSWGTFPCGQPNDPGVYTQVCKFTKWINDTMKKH
Cathepsin G, sequence (P08311 21-244): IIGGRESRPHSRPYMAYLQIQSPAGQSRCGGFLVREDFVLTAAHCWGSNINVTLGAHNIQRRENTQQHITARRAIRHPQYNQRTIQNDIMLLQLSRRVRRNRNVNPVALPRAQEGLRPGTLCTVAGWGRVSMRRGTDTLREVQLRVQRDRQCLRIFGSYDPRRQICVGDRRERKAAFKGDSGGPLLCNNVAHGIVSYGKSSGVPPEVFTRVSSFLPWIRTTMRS
Caspase 5, sequence (P51878 347-434): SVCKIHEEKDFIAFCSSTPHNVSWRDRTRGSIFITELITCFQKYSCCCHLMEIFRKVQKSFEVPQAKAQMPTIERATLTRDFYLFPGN
Caspase 5, sequence (P51878 138-327): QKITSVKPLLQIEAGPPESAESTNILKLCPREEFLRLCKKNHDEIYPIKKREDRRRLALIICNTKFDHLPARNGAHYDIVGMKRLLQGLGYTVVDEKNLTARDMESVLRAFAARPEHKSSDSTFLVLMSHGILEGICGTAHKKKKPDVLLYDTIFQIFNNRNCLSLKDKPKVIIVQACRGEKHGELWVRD
Papain, sequence (P00784 134-345): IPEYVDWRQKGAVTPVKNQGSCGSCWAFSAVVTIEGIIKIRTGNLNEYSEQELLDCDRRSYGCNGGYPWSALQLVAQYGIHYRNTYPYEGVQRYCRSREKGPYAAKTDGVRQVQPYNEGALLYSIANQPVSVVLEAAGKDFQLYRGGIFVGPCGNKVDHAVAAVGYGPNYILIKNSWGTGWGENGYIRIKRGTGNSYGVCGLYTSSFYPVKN

Compound: CC(C)C[C@H](NC(=O)[C@@H](NC(=O)N[C@@H](Cc1ccccc1)C(=O)O)[C@@H]1CCN=C(N)N1)C(=O)N[C@H](C=O)Cc1ccccc1 [Chymostatin]
- IC50 (Chymase): 0.0199 µM
- IC50 (Cathepsin G): 0.236 µM

Compound: Cc1nc2c([nH]1)-c1ccccc1N(C(=O)c1ccc(NC(=O)c3ccccc3-c3ccccc3)cc1)CC2 [Conivaptan]
- V2/Vla selectivity index (V2R versus V1a): 0.15

Compound: CC(=O)N[C@@H](CC(=O)O)C(=O)N[C@@H](CCC(=O)O)C(=O)N[C@H](C(=O)N[C@H](C=O)CC(=O)O)C(C)C [DEVD-CHO]
- IC50 (Caspase 6; read-out: Compound IC50): 26.5 nM
- IC50 (Caspase 7): 5.11 nM

Compound: CC(C)C[C@H](NC(=O)[C@H]1O[C@@H]1C(=O)O)C(=O)NCCCCN=C(N)N [E64]
- IC50 (Cathepsin H): 67.1 nM
- IC50 (Cathepsin B): 5.1 nM
- IC50 (Cathepsin C; read-out: Compound IC50): 0.59 µM
- IC50 (Cathepsin L): 1.96 nM
- IC50 (Cathepsin V): 19.7 nM
- IC50 (Papain; read-out: Compound IC50): 0.000118 µM
- IC50 (Cathepsin S): 5.43 nM

Compound: CC[C@H](C)[C@H](NC(C)=O)C(=O)N[C@@H](CCC(=O)O)C(=O)N[C@H](C(=O)N[C@H](C=O)CC(=O)O)[C@@H](C)O [IETD-CHO] (Ac-IETD-aldehyde)
- IC50 (Caspase 8): 2.52 nM
- IC50 (Caspase 4): 2180 nM
- IC50 (Caspase 2; read-out: Compound IC50): 0.646 µM
- IC50 (Caspase 10; read-out: Compound IC50): 0.0283 µM
- IC50 (Caspase 1; read-out: Compound IC50): 0.0893 µM
- IC50 (Caspase 5; read-out: Compound IC50): 38.3 nM
- IC50 (Caspase 9; read-out: Compound IC50): 0.0515 µM
- IC50 (Caspase 11; read-out: Compound IC50): 0.934 µM

Compound: CC(=O)N[C@@H](CC(C)C)C(=O)N[C@@H](CC(C)C)C(=O)N[C@H](C=O)CCCNC(=N)N [Leupeptin]
- IC50 (Proteinase A): 31.5 µM
- IC50 (Kallikrein 1): 296 nM

Compound: CCOc1ccc2c(c1)C1(CCC(OCCN3CCOCC3)CC1)C(=O)N2S(=O)(=O)c1ccc(C(=O)NC(C)(C)C)cc1OC (stereo not drawn) [Satavaptan]
- V2/Vla selectivity index (V2R versus V1a): 112

Compound: CC[C@H](C)[C@@H]1NC(=O)[C@H]([C@@H](C)O)NC(=O)[C@H](CO)NC(=O)[C@H](Cc2ccccc2)NC(=O)[C@H](CCCNC(=N)N)NC(=O)[C@H](CC(N)=O)NC(=O)[C@H](C)NC(=O)[C@H](CC(N)=O)NC(=O)CNC(=O)[C@H](CCCCN)NC(=O)[C@@H]2CSSC[C@@H]3NC(=O)[C@@H]4CCCN4C(=O)CNC(=O)[C@@H]4CCCN4C(=O)[C@H](CCCCN)NC(=O)[C@H](C(C)C)NC(=O)[C@@H]4CCCN4C(=O)[C@H](CC(C)C)NC(=O)[C@H](CC(N)=O)NC(=O)[C@@H](NC(=O)[C@H](Cc4ccccc4)NC(=O)[C@H](CO)NC(=O)[C@@H]4CCCN4C(=O)[C@@H](N)CCCNC(=N)N)CSSC[C@@H](C(=O)N[C@H](C(=O)NCC(=O)O)C(C)C)NC(=O)[C@H]([C@@H](C)O)NC(=O)[C@H](CCCNC(=N)N)NC(=O)[C@H](CCCNC(=N)N)NC(=O)[C@H](CSSC[C@H](NC(=O)[C@H](CCCCN)NC(=O)[C@H](CC(N)=O)NC(=O)[C@H]([C@@H](C)O)NC(=O)[C@H](CCCCN)NC(=O)[C@H](CCC(N)=O)NC(=O)[C@H](CO)NC(=O)[C@H](Cc4ccc(O)cc4)NC(=O)[C@H](Cc4ccc(O)cc4)NC(=O)[C@H](Cc4ccccc4)NC(=O)[C@H](C)NC(=O)[C@H](CO)NC(=O)[C@H](Cc4ccccc4)NC(=O)[C@H](Cc4ccccc4)NC(=O)CNC(=O)[C@H](CC(N)=O)NC3=O)C(=O)N[C@@H](Cc3c[nH]cn3)C(=O)N[C@@H](CO)C(=O)N[C@@H](Cc3ccccc3)C(=O)N[C@@H]([C@@H](C)O)C(=O)N[C@@H](Cc3ccc(O)cc3)C(=O)NCC(=O)NCC(=O)N2)NC(=O)[C@H](CCCCN)NC(=O)[C@H](CCC(=O)O)NC1=O [WT MQ1 peptide, mambaquaretin]
- IC50 (Kallikrein 5): 5.77 µM
- IC50 (Chymotrypsin): 2740 nM
- IC50 (Cathepsin C): 45.9 µM
- IC50 (Caspase 2): 42.5 µM
- IC50 (Caspase 6): > 50000 nM
- IC50 (Chymase): 18.2 µM
- IC50 (Caspase 10): 9.33 µM
- affinity for 156 other GPCRs [1]: no affinity at μM concentrations
- IC50 (Kallikrein 7): 3.65 µM
- IC50 (Caspase 1): 37.1 µM
- IC50 (Tryptase b2): 3630 nM
- IC50 (Matriptase 2): 116 nM
- IC50 (Plasma Kallikrein): 3890 nM
- IC50 (Tryptase g1): > 50000 nM
- IC50 (Trypsin): 3690 nM
- IC50 (Caspase 5): > 50000 nM
- IC50 (Cathepsin G): 8.54 µM
- IC50 (Elastase): > 50000 nM
- IC50 (Papain): 17.6 µM
- IC50 [2]: 192 nM
- IC50 (Caspase 9): 8.94 µM
- IC50 (Caspase 11): 14 µM

Compound: Cc1ccccc1C(=O)Nc1ccc(C(=O)N2CCCC(O)c3cc(Cl)ccc32)c(C)c1 (stereo not drawn) [tolvaptan]
- plasmatic sodium concentration versus vehicle-treated group [3]: significantly different from values on the vehicle-treated group

Compound: Gabexate mesylate [Gabexate mesylate (GM)]
- IC50 (Thrombin A): 3.16 µM
- IC50 (Kallikrein 5; read-out: Compound IC50): 0.697 µM
- IC50 (Urokinase): 614 nM
- IC50 (Kallikrein 12): 65.4 nM
- IC50 (FXa): 4.47 µM
- IC50 (Kallikrein 7; read-out: Compound IC50): 46.5 µM
- IC50 (Tryptase b2; read-out: Compound IC50): 19.8 nM
- IC50 (Plasmin): 344 nM
- IC50 (Matriptase 2; read-out: Compound IC50): 315 nM
- IC50 (Plasma Kallikrein; read-out: Compound IC50): 30.3 nM
- IC50 (Tryptase g1): 10.1 nM
- IC50 (Trypsin; read-out: Compound IC50): 11.2 nM
- IC50 (Elastase; read-out: Compound IC50): 216 nM
- IC50 (Kallikrein 14): 672 nM
- IC50 (Kallikrein 13): 11.8 µM

Compound: RPSFCNLPVAPGPCNGFFSAFYYSQKTNKCHSFTYGGCKGNANRFSTLEKCRRTCVG (disulfide 5-55, 14-38, 30-51) [K10A]
- Ki [4]: 9.38 nM

Compound: RPSFCNLPVEPGPCNGFFSAFYYSQKTNKCHSFTYGGCKGNANRFSTLEKCRRTCVG (disulfide 5-55, 14-38, 30-51) [K10E]
- Ki [4]: 337 nM

Compound: RPSFCNLPVKPGPCNGFFSAFYYSQKTNKCHSFTYGGCKGAANRFSTIEKCRRTCVG (disulfide 5-55, 14-38, 30-51) [N41A]
- Ki [4]: 8.49 nM

Compound: RPSFCNLPVKPGPCNGFFSAFYYSQKTNKCHSFTYGGCKGNANAFSTLEKCRRTCVG (disulfide 5-55, 14-38, 30-51) [R44A]
- Ki [4]: 13.3 nM

Compound: RPSFCNLPVKPGPCNGFFSAFYYSQKTNKCHSFTYGGCKGNANEFSTLEKCRRTCVG (disulfide 5-55, 14-38, 30-51) [R44E]
- Ki [4]: 99.3 nM
